Test results taken from patent US11129836B2, “PAR-4 agonists for the treatment of cancer” (Cipla Limited, priority 2016, dated 2021).

Columns and labels:
PAR-4 [1] = details: mouse embryonic fibroblast (MEF) cells, at micromolar levels; cited from earlier work
PAR-4 [2] = assay: PAR-4 secretion assay, Western blot of conditioned media and lysate; type: cell-based, mouse
Experimental: Material: DMEM media, FBS, Mouse embryonic fibroblast cells, PAR-4 antibody, Antirabbit IgG-HRP, Collagen A1 antibody, B-actin antibody, Antimouse IgG HRP
Six well plate seeded (2 ml per well) with Mouse embryonic fibroblast cells in DMEM+10% FBS. The plate was incubated for 16-18 hrs, 37° C. 5% CO2.
Drugs to be tested are diluted with suitable solvent to obtain 25 mM concentration. Media from cells is discarded and replaced with DMEM media with 0.1% FBS. Compound added to the cells at final concentration of 25 μM.
Conditioned media (CM-supernatant) is collected from each well and centrifuged at 1000 rpm/5 mins to remove cell debris. After centrifugation the media was poured in concentration filters (Amicon ultracentrifuge tube with cutoff 10 Kda) and again centrifuged at 4500 rpm/15 mins at 4° C. The media was concentrated to 100 μl and then mixed with 50 μl of loading dye. The mixture was maintained in a 100° C. dry bath/water bath for 10 mins. SDS-PAGE and a western blot was performed of the samples using broad range molecular weight marker.

[3] = tested on: Mouse embryonic fibroblast cells; assay: Assay to analyse non-cytotoxic concentration (CellTiter 96 AQueous One cell proliferation assay); type: cell-based; details: up to 48 hours, highest concentration of 125 μM
Experimental: Mouse embryonic fibroblast cells were plated in 96-well cell culture plates (2×10^4 cells/well) and were treated with drug/s at various concentrations. […] After the incubation anti-proliferative activity of test compounds was measured using ProMega Cell Titer aqueous one solution cell proliferation assay kit, viz. CellTiter 96® AQueous One Solution Reagent. Cells were incubated for 1-4 hours at 37° C., 5% CO2 incubator and absorbance was measured at 490 nm using a plate reader. IC50 values were determined by plotting compound concentration versus cell viability.

| Compound | stimulation of PAR-4 secretion (PAR-4 [1]) | PAR-4 secretion (FIG. 1, Western blot) (PAR-4 [2]; mouse embryonic fibroblast cells) | increase in the secretion of intracellular PAR-4 (PAR-4 [2]; mouse embryonic fibroblast cells (lysate), compared to DMSO control, Western blot, compound at 25 μM) | increase in the secretion of PAR-4 in the conditioned media (PAR-4 [2]; mouse embryonic fibroblast cells, compared to DMSO control, Western blot, compound at 25 μM) | toxicity in Mouse Embryonic fibroblast cells [3] |
| --- | --- | --- | --- | --- | --- |
| COc1ccc(C2=N[C@@H](c3ccc(Cl)cc3)[C@@H](c3ccc(Cl)cc3)N2C(=O)N2CCNC(=O)C2)c(OC(C)C)c1 [Nutlin-3a] | stimulated PAR-4 secretion at micromolar levels | – | – | – | – |
| CO/N=C(\C(=O)N[C@@H]1C(=O)N2C(C(=O)O)=C(COC(N)=O)CS[C@H]12)c1ccco1 [Cefuroxime, (6R, 7R)-3-{[(aminocarbonyl)oxy]methyl}-7-{[(2Z)-2-(2-furyl)-2-(methoxyimino)acetyl]amino}-8-oxo-5-thia-1-azabicyclo [4.2.0]oct-2-ene-2-carboxylic acid] | – | increased PAR-4 secretion | about 2 fold | 4-5 fold | does not show toxicity |
